Results taken from patent US10597388B2, “Pyridazinone herbicides” (FMC CORPORATION, priority 2014, dated 2020).

Experiments:
Assay in all cases: Test E greenhouse herbicide test, pre- and postemergence
Assay type in all cases: in vivo
[1] = tested on: corn (Zea mays)
Method in brief: (§1)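 Seeds were sown in silt loam and sprayed preemergence with compound in a non-phytotoxic solvent mix containing surfactant; for postemergence, plants at 2 to 18 cm (1- to 4-leaf stage) in peat-based potting medium were sprayed with the same formulation. After 14 to 21 d in a greenhouse, injury was rated visually against controls (0–100).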

[2] = tested on: lambsquarters (Chenopodium album); conditions: Preemergence
Method in brief: as §1

[3] = tested on: momingglory (Ipomoea coccinea); conditions: Preemergence
Method in brief: as §1

[4] = tested on: panicum, fall (fall panicum, Panicum dichotomiflorum)
Method in brief: as §1

[5] = tested on: nightshade (eastern black nightshade, Solanum ptycanthum); conditions: Preemergence
Method in brief: as §1

[6] = tested on: Italian ryegrass (Lolium multiflorum)
Method in brief: as §1

[7] = tested on: crabgrass, large (large crabgrass, Digitaria sanguinalis); conditions: Preemergence
Method in brief: as §1

[8] = tested on: ragweed (common ragweed, Ambrosia elatior); conditions: Preemergence
Method in brief: as §1

[9] = tested on: velvetleaf (Abutilon theophrasti); conditions: Preemergence
Method in brief: as §1

[10] = tested on: arrowleaf sida (Sida rhombifolia)
Method in brief: as §1

[11] = tested on: beggarticks (hairy beggarticks, Bidens pilosa)
Method in brief: as §1

[12] = tested on: sandbur (southem sandbur, Cenchrus echinatus)
Method in brief: as §1

[13] = tested on: field bindweed (Convolvulus arvensis)
Method in brief: as §1

[14] = tested on: foxtail, green (green foxtail, Setaria viridis); conditions: Preemergence
Method in brief: as §1

[15] = tested on: foxtail, giant (giant foxtail, Setaria faberii); conditions: Preemergence
Method in brief: as §1

[16] = tested on: horseweed (Conyza canadensis); conditions: Preemergence
Method in brief: as §1

[17] = 62 g ai/ha, Postemergence, scale 0 to 100 (0 no effect, 100 complete control)
[18] = 62 g ai/ha, Preemergence, scale 0 to 100 (0 no effect, 100 complete control)
[19] = 125 g ai/ha, Postemergence, scale 0 to 100 (0 no effect, 100 complete control)
[20] = 250 g ai/ha, Postemergence, scale 0 to 100 (0 no effect, 100 complete control)
[21] = Postemergence, 16 g ai/ha, visual, scale 0 no effect to 100 complete control
[22] = Postemergence, 31 g ai/ha, visual, scale 0 no effect to 100 complete control
[23] = Preemergence, 16 g ai/ha, scale 0 to 100, 0 no effect, 100 complete control
[24] = Preemergence, 31 g ai/ha, scale 0 to 100, 0 no effect, 100 complete control
[25] = Preemergence, 125 g ai/ha, visual, scale 0 no effect to 100 complete control
[26] = Preemergence, 250 g ai/ha, visual, scale 0 no effect to 100 complete control
[27] = 62 g ai/ha, scale 0 to 100 (0 no effect, 100 complete control)
[28] = 16 g ai/ha, scale 0 to 100, 0 no effect, 100 complete control
[29] = 31 g ai/ha, scale 0 to 100, 0 no effect, 100 complete control
[30] = 125 g ai/ha, visual, scale 0 no effect to 100 complete control
[31] = 250 g ai/ha, visual, scale 0 no effect to 100 complete control
[32] = 125 g ai/ha, scale 0 to 100 (0 no effect, 100 complete control)
[33] = 125 g ai/ha, Preemergence, scale 0 to 100 (0 no effect, 100 complete control)

Cc1cc(C)c2sc(C)c(-c3c(O)c(C)nn(C)c3=O)c2c1 [Compound 2, 5-hydroxy-2,6-dimethyl-4-(2,5,7-trimethylbenzo[b]thien-3-yl)-3(2H)-pyridazinone]
Plant response rating, Corn [1, 17]: 0 | Plant response rating, Corn [1, 18]: 0 | Plant response rating, Corn [1, 19]: 5 | Plant response rating, Corn [1, 20]: 5 | Plant response rating, Corn [1, 21]: 0 | Plant response rating, Corn [1, 22]: 0 | Plant response rating, Corn [1, 23]: 0 | Plant response rating, Corn [1, 24]: 0 | Plant response rating, Corn [1, 25]: 0 | Plant response rating, Corn [1, 26]: 0 | Plant response rating, Lambsquarters [2, 27]: 98 | Plant response rating, Lambsquarters [2, 28]: 50 | Plant response rating, Lambsquarters [2, 29]: 100 | Plant response rating, Lambsquarters [2, 30]: 98 | Plant response rating, Lambsquarters [2, 31]: 100 | Plant response rating, Morningglory [3, 27]: 90 | Plant response rating, Morningglory [3, 32]: 100 | Plant response rating, Morningglory [3, 28]: 0 | Plant response rating, Morningglory [3, 29]: 75 | Plant response rating, Morningglory [3, 31]: 100 | Plant response rating, Panicum, Fall [4, 17]: 70 | Plant response rating, Panicum, Fall [4, 18]: 95 | Plant response rating, Panicum, Fall [4, 19]: 85 | Plant response rating, Panicum, Fall [4, 33]: 98 | Plant response rating, Panicum, Fall [4, 20]: 90 | Plant response rating, Panicum, Fall [4, 21]: 60 | Plant response rating, Panicum, Fall [4, 22]: 70 | Plant response rating, Panicum, Fall [4, 23]: 75 | Plant response rating, Panicum, Fall [4, 24]: 85 | Plant response rating, Panicum, Fall [4, 26]: 100 | Plant response rating, Nightshade [5, 27]: 98 | Plant response rating, Nightshade [5, 32]: 98 | Plant response rating, Nightshade [5, 28]: 35 | Plant response rating, Nightshade [5, 29]: 75 | Plant response rating, Nightshade [5, 31]: 100 | Plant response rating, Ryegrass, Italian [6, 17]: 50 | Plant response rating, Ryegrass, Italian [6, 18]: 98 | Plant response rating, Ryegrass, Italian [6, 19]: 65 | Plant response rating, Ryegrass, Italian [6, 33]: 100 | Plant response rating, Ryegrass, Italian [6, 20]: 75 | Plant response rating, Ryegrass, Italian [6, 21]: 20 | Plant response rating, Ryegrass, Italian [6, 22]: 30 | Plant response rating, Ryegrass, Italian [6, 23]: 50 | Plant response rating, Ryegrass, Italian [6, 24]: 95 | Plant response rating, Ryegrass, Italian [6, 26]: 100 | Plant response rating, Crabgrass, Large [7, 27]: 0 | Plant response rating, Crabgrass, Large [7, 28]: 0 | Plant response rating, Crabgrass, Large [7, 29]: 0 | Plant response rating, Crabgrass, Large [7, 30]: 30 | Plant response rating, Crabgrass, Large [7, 31]: 60 | Plant response rating, Ragweed [8, 27]: 75 | Plant response rating, Ragweed [8, 32]: 98 | Plant response rating, Ragweed [8, 28]: 20 | Plant response rating, Ragweed [8, 29]: 35 | Plant response rating, Ragweed [8, 31]: 98 | Plant response rating, Velvetleaf [9, 27]: 60 | Plant response rating, Velvetleaf [9, 32]: 80 | Plant response rating, Velvetleaf [9, 28]: 0 | Plant response rating, Velvetleaf [9, 29]: 30 | Plant response rating, Velvetleaf [9, 31]: 90 | Plant response rating, Arrowleaf Sida [10, 17]: 30 | Plant response rating, Arrowleaf Sida [10, 18]: 0 | Plant response rating, Arrowleaf Sida [10, 19]: 35 | Plant response rating, Arrowleaf Sida [10, 20]: 40 | Plant response rating, Arrowleaf Sida [10, 21]: 0 | Plant response rating, Arrowleaf Sida [10, 22]: 25 | Plant response rating, Arrowleaf Sida [10, 23]: 0 | Plant response rating, Arrowleaf Sida [10, 24]: 0 | Plant response rating, Arrowleaf Sida [10, 25]: 0 | Plant response rating, Arrowleaf Sida [10, 26]: 5 | Plant response rating, Beggarticks [11, 17]: 100 | Plant response rating, Beggarticks [11, 18]: 100 | Plant response rating, Beggarticks [11, 19]: 100 | Plant response rating, Beggarticks [11, 20]: 100 | Plant response rating, Beggarticks [11, 21]: 85 | Plant response rating, Beggarticks [11, 22]: 95 | Plant response rating, Beggarticks [11, 23]: 90 | Plant response rating, Beggarticks [11, 24]: 100 | Plant response rating, Beggarticks [11, 25]: 100 | Plant response rating, Beggarticks [11, 26]: 100 | Plant response rating, Sandbur [12, 17]: 15 | Plant response rating, Sandbur [12, 18]: 15 | Plant response rating, Sandbur [12, 19]: 20 | Plant response rating, Sandbur [12, 33]: 70 | Plant response rating, Sandbur [12, 20]: 30 | Plant response rating, Sandbur [12, 21]: 5 | Plant response rating, Sandbur [12, 22]: 10 | Plant response rating, Sandbur [12, 23]: 0 | Plant response rating, Sandbur [12, 24]: 15 | Plant response rating, Sandbur [12, 26]: 75 | Plant response rating, Field Bindweed [13, 17]: 65 | Plant response rating, Field Bindweed [13, 18]: 15 | Plant response rating, Field Bindweed [13, 19]: 75 | Plant response rating, Field Bindweed [13, 20]: 80 | Plant response rating, Field Bindweed [13, 21]: 60 | Plant response rating, Field Bindweed [13, 22]: 60 | Plant response rating, Field Bindweed [13, 23]: 0 | Plant response rating, Field Bindweed [13, 24]: 0 | Plant response rating, Field Bindweed [13, 25]: 35 | Plant response rating, Field Bindweed [13, 26]: 70 | Plant response rating, Foxtail, Green [14, 27]: 95 | Plant response rating, Foxtail, Green [14, 28]: 0 | Plant response rating, Foxtail, Green [14, 29]: 35 | Plant response rating, Foxtail, Green [14, 30]: 95 | Plant response rating, Foxtail, Green [14, 31]: 98 | Plant response rating, Foxtail, Giant [15, 27]: 95 | Plant response rating, Foxtail, Giant [15, 28]: 40 | Plant response rating, Foxtail, Giant [15, 29]: 75 | Plant response rating, Foxtail, Giant [15, 30]: 98 | Plant response rating, Foxtail, Giant [15, 31]: 98

Cc1cc(C)c2ccccc2c1-c1c(O)c(C)nn(C)c1=O [Compound 21]
Plant response rating, Corn [1, 18]: 0 | Plant response rating, Corn [1, 24]: 0 | Plant response rating, Corn [1, 25]: 30 | Plant response rating, Lambsquarters [2, 27]: 100 | Plant response rating, Lambsquarters [2, 29]: 100 | Plant response rating, Lambsquarters [2, 30]: 100 | Plant response rating, Morningglory [3, 27]: 98 | Plant response rating, Morningglory [3, 32]: 100 | Plant response rating, Morningglory [3, 29]: 90 | Plant response rating, Horseweed [16, 27]: 100 | Plant response rating, Horseweed [16, 29]: 100 | Plant response rating, Horseweed [16, 30]: 100 | Plant response rating, Panicum, Fall [4, 18]: 100 | Plant response rating, Panicum, Fall [4, 33]: 100 | Plant response rating, Panicum, Fall [4, 24]: 100 | Plant response rating, Ryegrass, Italian [6, 18]: 100 | Plant response rating, Ryegrass, Italian [6, 33]: 100 | Plant response rating, Ryegrass, Italian [6, 24]: 100 | Plant response rating, Crabgrass, Large [7, 27]: 85 | Plant response rating, Crabgrass, Large [7, 29]: 65 | Plant response rating, Crabgrass, Large [7, 30]: 100 | Plant response rating, Ragweed [8, 27]: 98 | Plant response rating, Ragweed [8, 32]: 100 | Plant response rating, Ragweed [8, 29]: 95 | Plant response rating, Velvetleaf [9, 27]: 90 | Plant response rating, Velvetleaf [9, 32]: 90 | Plant response rating, Velvetleaf [9, 29]: 80 | Plant response rating, Arrowleaf Sida [10, 18]: 0 | Plant response rating, Arrowleaf Sida [10, 24]: 0 | Plant response rating, Arrowleaf Sida [10, 25]: 50 | Plant response rating, Beggarticks [11, 18]: 100 | Plant response rating, Beggarticks [11, 24]: 100 | Plant response rating, Beggarticks [11, 25]: 100 | Plant response rating, Sandbur [12, 18]: 80 | Plant response rating, Sandbur [12, 33]: 90 | Plant response rating, Sandbur [12, 24]: 80 | Plant response rating, Field Bindweed [13, 18]: 95 | Plant response rating, Field Bindweed [13, 24]: 35 | Plant response rating, Field Bindweed [13, 25]: 98 | Plant response rating, Foxtail, Green [14, 27]: 100 | Plant response rating, Foxtail, Green [14, 29]: 95 | Plant response rating, Foxtail, Green [14, 30]: 100 | Plant response rating, Foxtail, Giant [15, 27]: 98 | Plant response rating, Foxtail, Giant [15, 29]: 95 | Plant response rating, Foxtail, Giant [15, 30]: 100
